Results published in patent US4442118A, “Aldose reductase inhibition by 1-(4-chlorobenzoyl)-5-methoxy-2-methyl-1H-indole-3-acetic acid” (Ayerst, McKenna & Harrison, Inc., priority 1981, dated 1984).

Molecular target: lens aldose reductase (Bos taurus, UniProt P16116)
Assay: in vitro aldose reductase inhibition test (modified Hayman and Kinoshita procedure)
Assay type: biochemical, bovine
Description: In the present case the procedure of Hayman and Kinoshita is modified in that the final chromatography step is omitted in the preparation of the enzyme from bovine lens.
The following results were obtained when indomethacin was evaluated in the above in vitro test: […]

Structure (SMILES): COc1ccc2c(c1)c(CC(=O)O)c(C)n2C(=O)c1ccc(Cl)cc1 [Indomethacin, 1-(4-Chlorobenzoyl)-5-methoxy-2-methyl-1H-indole-3-acetic acid]
- inhibitor of lens aldose reductase (in words): potent inhibitor of lens aldose reductase
